Experimental data reported in paper PMC12163684, “Gunacins: Novel Benzo[g]chromene Derivatives from the Fungus Exobasidium sp. and Their Potent Anti-Leishmania and Trypanosoma Activities” (ACS Omega, 2025).
Values after ≈ are worked out from the molar mass of the structure shown.

Tests used:
K. rhizophila ATCC 9341 = assay: Minimum inhibitory concentration (MIC) testing, serial binary dilution in 96-well plates; assay type: cell-based; settings: Kocuria rhizophila, ATCC9341; 24 h in the dark; lowest concentration with no live microorganisms
Procedure: (§1) Minimum inhibitory concentration (MIC) testing of the extracts was performed using 96-well polypropylene plates against four different microorganisms: the Gram-positive bacterium K. rhizophila ATCC 9341, the Gram-negative bacterium E. coli ATCC 3988, and the yeasts C. albicans CCM 8215 and C. neoformans CCF 1081.
(§2) A working inoculum of each microorganism was prepared as follows: for E. coli and K. rhizophila, the inoculum was grown in LB medium (LB Broth, 25 g/L, incubated at 36 °C); for C. albicans and C. neoformans, YM6.3 medium (maltose extract 10 g, glucose 4 g, yeast extract 4 g per 1 L distilled water, incubated at 24 °C) with a cell concentration of approximately 5 × 10^5 cells/mL for all microorganisms was used.
(§3) Chloramphenicol served as a positive control for bacteria, while cycloheximide was used as a positive control for fungi. The gradient of the test substances was established by serial binary dilution across the wells. The MIC was determined by identifying the lowest concentration at which no live microorganisms were present. Cultivation was performed in the dark for 24 h.

E. coli ATCC 3988 = assay: as above; assay type: cell-based; settings: Escherichia coli, ATCC3988; 24 h in the dark; lowest concentration with no live microorganisms
Procedure: as §1, §2, §3

[1] = system: RAT2 fibroblast cell line; assay: Cytotoxicity on proliferating cells, crystal violet assay, OD590; assay type: cell-based; settings: Rat2, 24 h, 24 h treatment, read-out: EC50 ± SEM RAT2
Procedure: (§4) MDCK and RAT cells were cultured in DMEM with 10% FBS at 37 °C in a 5% CO2 atmosphere as described previously. , To assess the toxic effects of the compounds on proliferating cells, cells were seeded in 24-well plates for 24 h to reach ∼15% confluence, and cells were treated in triplicate with increasing concentrations of the isolated compounds for an additional 24 h. Cells were washed with 1× PBS, fixed in staining solution (0.5% crystal violet, 20% methanol) for 10 min, and gently washed five times in 1× PBS. The fixed cells were then dissolved in lysis solution (0.1 M sodium citrate, 25% ethanol, pH 4.2) for 30 min, transferred to a 96-well plate in H2O, and the OD^590 was determined. EC50 values were determined using GraphPad Prism software and the dose–response fit equation. The EC50 values were determined from two independent experiments. Additionally, the impact of the isolated substances on the morphology of the HeLa adenocarcinoma cell line and primary human skin fibroblasts was examined by using fluorescence microscopy. Cells were cultured in DME medium supplemented with 10% FCS (Gibco, Invitrogen, Carlsbad, USA) on glass coverslips in 24-well plates until reaching approximately 50% confluence. The cells were treated with varying concentrations of isolated compounds dissolved in DMSO. Wells containing DMEM with DMSO served as the negative control. After 24 h cultivation, the cells were incubated with MitoTracker Red CMXRos (10 min) to label mitochondria, then fixed with 3.7% paraformaldehyde in PBS (20 min, room temperature), permeabilized with 0.1% Triton X-100 in PBS, and blocked with 1% BSA in PBS. The cells were then stained with Phalloidin-Alexa Fluor488 conjugate. All fluorescence reagents were purchased from Molecular Probes, Invitrogen, Carlsbad, CA, USA. Nuclei were stained with Fluoroshield DAPI (Sigma-Aldrich), and cells were examined using an IX71 microscope equipped with a DP70 camera and a 40× objective. Assays were performed at concentrations of 5, 25, 50, 100, and 125 μM.

[2] = system: Madin–Darby canine kidney (MDCK) epithelial cell line; assay: as above; assay type: cell-based; settings: Canis lupus familiaris, 24 h treatment, read-out: EC50 ± SEM MDCK
Procedure: as §4

T. b. brucei 427 = assay: Anti-trypanosomal activity, resazurin (AB assay), bloodstream form; assay type: cell-based; settings: Trypanosoma brucei, 72 h, axenic, 48 h + 24 h resazurin
Procedure: (§5) The bloodstream forms of T. b. gambiense LiTat 1.3, T. b. brucei 427, and T. b. evansi AnTat 3/3 were grown in HMI-11 medium pH 7.3 supplemented with 36 mM sodium bicarbonate, 100 U/mL penicillin/streptomycin, and 10% fetal bovine serum at 37 °C and 5% CO2. The bloodstream form of Trypanosoma congolense IL3000 (generous gift from Liam Morrison) was cultured in TcBSF-1 medium pH 7.3 supplemented with 26 mM sodium bicarbonate, 25 mM HEPES, 5.5 mM glucose, 1 mM sodium pyruvate, 0.04 mM adenosine, 0.1 mM hypoxanthine, 0.02 mM thymidine, 0.02 mM bathocuproine, 2 mM L-glutamine, 0.2 mM 2-mercaptoethanol, 100 U/ml penicillin/streptomycin, and 20% goat serum New Zealand origin (Gibco) at 34 °C, 5% CO2. The assay for anti-trypanosomal activity was performed using the resazurin sodium salt dye (AB Assay) according to the published protocol in a 96-well plate format. Parasites at a number of 5 × 10^3 per well (T. b. brucei and T. b. gambiense) or 1 × 10^4 per well (T. b. evansi) were incubated with different drug concentrations (2-fold serial dilutions) in a volume of 200 μL of the medium. Medium with 1% DMSO (the highest concentration of the solvent used in the assay) was used to confirm no effect of the solvent on the cell growth. The plates were incubated for 48 h at the appropriate temperature. Then, 20 μL of resazurin sodium salt solution (0.125 mg/mL in 1× PBS, pH 7. 4) was added to each well, and the cells were incubated for another 24 h under the same conditions. The fluorescence signal was quantified using a Tecan Infinite M200 plate reader at excitation and emission wavelengths of 560 and 590 nm, respectively. The EC50 values were calculated using GraphPad Prism 9.5.1 by nonlinear regression with a variable slope. Each EC50 value is the mean ± standard error of the mean of three separate experiments performed in duplicate.

[3] = system: Trypanosoma congolense IL3000; assay: as above; assay type: cell-based; settings: 72 h, axenic, 48 h + 24 h resazurin, read-out: EC50 T. congolense
Procedure: as §5

C. albicans CCM 8215 = assay: Minimum inhibitory concentration (MIC) testing, serial binary dilution in 96-well plates; assay type: cell-based; settings: Candida albicans, CCM8215; 24 h in the dark; n.d. = activity not detected; highest tested concentration 66.7 μM
Procedure: as §1, §2, §3

C. neoformans CCF 1081 = assay: as above; assay type: cell-based; settings: Cryptococcus neoformans, CCF1081; 24 h in the dark; n.d. = activity not detected; highest tested concentration 66.7 μM
Procedure: as §1, §2, §3

[4] = system: T. b. gambiense LiTat 1.3; assay: Anti-trypanosomal activity, resazurin (AB assay), bloodstream form; assay type: cell-based, T. brucei gambiense; settings: Trypanosoma brucei, 72 h, axenic, 48 h + 24 h resazurin
Procedure: as §5

T. b. evansi AnTat 3/3 = assay: as above; assay type: cell-based, T. brucei evansi; settings: Trypanosoma brucei, 72 h, axenic, 48 h + 24 h resazurin
Procedure: as §5

[5] = system: L. mexicana (MNYC/BZ/1962/M379) amastigote; assay: Anti-Leishmania activity, AB assay, axenic amastigotes; assay type: cell-based
Procedure: (§6) Promastigote stages of L. mexicana (MNYC/BZ/1962/M379), a generous gift from Vyacheslav Yurchenko, were cultured in M199 medium pH 7.4 supplemented with 2 μg/mL biopterin, 2 μg/mL hemin, 25 mM HEPES, 100 U/mL penicillin/streptomycin, and 10% heat-inactivated FBS (BioSera) pH 7.4 at 25 °C. The amastigotes were differentiated in vitro from late log/stationary promastigote cultures and cultivated in Schneider’s Drosophila Medium (SIM) at pH 5.5, supplemented with 1.5 μg/mL hemin, 100 U/mL penicillin/streptomycin, and 20% heat-inactivated FBS (BioSera) at pH 5.5, at 32 °C, and 5% CO2. Following a three-day period, the promastigotes underwent a transformation into amastigotes, which were then maintained in SIM.
(§7) To estimate the EC50, the AB assay, as previously described, was employed. The results are expressed as EC50, representing the dose of the compound required to inhibit cellular growth by 50%. Each EC50 value is the mean ± the standard error of the mean derived from at least three separate experiments, each performed in duplicate.

[6] = system: L. mexicana (MNYC/BZ/1962/M379) promastigote; assay: Anti-Leishmania activity, AB assay, axenic promastigotes; assay type: cell-based
Procedure: as §6, §7

SMILES | MIC (K. rhizophila ATCC 9341) [µM] | MIC (E. coli ATCC 3988) [µM] | EC50 [1] [µM] | EC50 [2] [µM] | EC50 (T. b. brucei 427) [µM] | EC50 [3] [µM] | MIC (C. albicans CCM 8215) [µM] | MIC (C. neoformans CCF 1081) [µM] | EC50 [4] [µM] | EC50 (T. b. evansi AnTat 3/3) [µM] | EC50 [5] [µM] | EC50 [6] [µM]
O=C(N[C@H](CO)[C@H](O)c1ccc([N+](=O)[O-])cc1)C(Cl)Cl [chloramphenicol, reference compound] | 10.3 (≈ 3.33 µg/mL) | 10.3 (≈ 3.33 µg/mL) |  |  |  |  |  |  |  |  |  | 
COc1cc(O)c2c(c1)C(=O)C1=C(C2=O)[C@@H](O)[C@@H](O)[C@@H](C)O1 [Compound 4, (2R,3R,4R)-3,4,6-trihydroxy-8-methoxy-2-methyl-3,4-dihydro-2H-benzo[g]chromene-5,10-dione] |  |  | 5.1 ± 0.1 | 6 ± 1 |  |  |  |  |  |  |  | 
COc1cc(O)c2c(c1)C(=O)C1=C(C[C@@H](O)[C@@H](C)O1)C2=O [Compound 6, (2R,3R)-3,6-dihydroxy-8-methoxy-2-methyl-3,4-dihydro-2H-benzo[g]chromene-5,10-dione] | 8.3 (≈ 2.41 µg/mL) | 2.1 (≈ 0.61 µg/mL) | 6.7 ± 0.8 | 7.2 ± 0.5 | 5.1 | 9.2 | 66.7 (≈ 19.4 µg/mL) | 66.7 (≈ 19.4 µg/mL) | 8.6 | 2.4 | 5.5 | 25.2
C[C@@H]1[C@H](O)[C@@H](C)/C=C/C=C/C=C/C=C/C=C/C=C/C=C/[C@H](O[C@@H]2O[C@H](C)[C@@H](O)[C@H](N)[C@@H]2O)C[C@@H]2O[C@](O)(C[C@@H](O)C[C@@H](O)[C@H](O)CC[C@@H](O)C[C@@H](O)CC(=O)O[C@H]1C)C[C@H](O)[C@H]2C(=O)O [amphotericin B, reference compound] |  |  |  |  |  |  |  |  |  |  |  | 0.1
